In patent US8728517B2, “Pharmaceutical compositions of entacapone co-micronized with sugar alcohols” (Wockhardt Ltd., priority 2008, dated 2014):

Assay: Percent drug release of poorly soluble drugs combined with sugar alcohols
Type: physicochemical
Details: for effect on percent release: with sugar alcohols like mannitol or sorbitol, as physical mixture or complex

effect on percent release | effect on percent drug release (co-micronized with sugar alcohols vs formulation not co-micronized with a sugar alcohol) | SMILES
does not make any significant difference |  | O=C1CCc2ccc(OCCCCN3CCN(c4cccc(Cl)c4Cl)CC3)cc2N1 [aripiprazole]
 | significant increase | CCN(CC)C(=O)/C(C#N)=C/c1cc(O)c(O)c([N+](=O)[O-])c1 [entacapone, (E)-2-cyano-3-(3,4-dihydroxy-5-nitrophenyl)-N,N-diethyl-2-propenamide]
does not make any significant difference |  | CCCCC1=NC2(CCCC2)C(=O)N1Cc1ccc(-c2ccccc2-c2nnn[nH]2)cc1 [irbesartan]
